{"source": "BindingDB's records for doi:10.1021/jm030354b", "about": "(Millennium Pharmaceuticals, 2004)"}
{"target": "Integrin alpha-IIb/beta-3 (Homo sapiens, UniProt P08514+P05106)", "sequence (P05106 27-788 limits assumed)": "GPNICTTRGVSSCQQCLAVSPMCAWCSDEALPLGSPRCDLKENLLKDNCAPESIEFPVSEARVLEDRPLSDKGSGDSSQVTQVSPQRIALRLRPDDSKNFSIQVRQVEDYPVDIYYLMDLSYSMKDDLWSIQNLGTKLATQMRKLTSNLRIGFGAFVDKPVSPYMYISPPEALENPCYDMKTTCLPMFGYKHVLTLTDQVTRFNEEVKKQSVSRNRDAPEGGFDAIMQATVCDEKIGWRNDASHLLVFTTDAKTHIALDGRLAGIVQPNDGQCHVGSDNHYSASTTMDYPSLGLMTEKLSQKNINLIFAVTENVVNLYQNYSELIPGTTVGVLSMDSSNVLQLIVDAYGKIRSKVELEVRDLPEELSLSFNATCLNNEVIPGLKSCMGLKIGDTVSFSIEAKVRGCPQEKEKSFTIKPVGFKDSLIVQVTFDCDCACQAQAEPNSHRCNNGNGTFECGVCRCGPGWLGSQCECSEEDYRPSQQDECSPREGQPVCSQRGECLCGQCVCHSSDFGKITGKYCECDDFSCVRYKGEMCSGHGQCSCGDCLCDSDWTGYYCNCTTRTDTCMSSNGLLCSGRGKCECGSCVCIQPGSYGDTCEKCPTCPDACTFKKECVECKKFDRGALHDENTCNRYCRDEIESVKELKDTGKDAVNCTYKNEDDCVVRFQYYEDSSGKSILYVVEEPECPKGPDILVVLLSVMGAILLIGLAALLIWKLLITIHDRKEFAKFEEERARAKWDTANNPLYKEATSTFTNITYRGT", "sequence (P08514 32-887 limits assumed)": "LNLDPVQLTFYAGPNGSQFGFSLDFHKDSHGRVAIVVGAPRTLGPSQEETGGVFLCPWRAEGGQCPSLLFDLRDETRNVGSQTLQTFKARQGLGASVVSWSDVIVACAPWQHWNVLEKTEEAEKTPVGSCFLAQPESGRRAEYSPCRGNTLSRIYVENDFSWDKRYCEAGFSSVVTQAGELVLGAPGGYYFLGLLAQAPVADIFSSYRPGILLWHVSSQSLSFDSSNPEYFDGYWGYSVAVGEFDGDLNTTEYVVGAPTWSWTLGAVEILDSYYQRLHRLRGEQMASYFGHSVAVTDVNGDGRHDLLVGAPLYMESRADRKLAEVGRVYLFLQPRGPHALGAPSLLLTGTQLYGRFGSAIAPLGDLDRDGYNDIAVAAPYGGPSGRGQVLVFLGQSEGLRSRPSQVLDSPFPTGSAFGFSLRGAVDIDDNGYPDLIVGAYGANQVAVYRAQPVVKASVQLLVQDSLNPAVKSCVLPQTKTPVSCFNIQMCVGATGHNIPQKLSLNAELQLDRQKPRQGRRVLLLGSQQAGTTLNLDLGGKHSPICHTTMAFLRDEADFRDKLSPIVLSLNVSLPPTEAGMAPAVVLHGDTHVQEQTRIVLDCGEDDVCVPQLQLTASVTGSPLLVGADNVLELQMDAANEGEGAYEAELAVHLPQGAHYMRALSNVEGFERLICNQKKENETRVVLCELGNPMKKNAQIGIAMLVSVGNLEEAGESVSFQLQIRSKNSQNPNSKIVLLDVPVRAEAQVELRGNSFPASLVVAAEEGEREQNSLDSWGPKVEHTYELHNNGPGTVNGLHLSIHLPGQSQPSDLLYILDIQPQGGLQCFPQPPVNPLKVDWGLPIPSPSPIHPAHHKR", "sequence (P08514 891-1039 limits assumed)": "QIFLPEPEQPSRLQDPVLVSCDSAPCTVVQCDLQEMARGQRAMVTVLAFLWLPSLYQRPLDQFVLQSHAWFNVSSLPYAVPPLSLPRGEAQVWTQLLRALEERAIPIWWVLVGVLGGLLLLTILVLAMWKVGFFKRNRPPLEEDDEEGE", "experiment": "Inhibition of platelet aggregation induced by 20 uM adenosine 5-diphosphate (ADP) in citreated human platelet rich plasma (h-PRP)", "units": {"IC50": "nM"}}
{"smiles": "N=C(N)c1ccc(N2CC3(CCN(C(=O)CC(CC(=O)O)c4ccccc4)CC3)CC2=O)cc1", "note": "(stereo not given) [5-[2-(4-Carbamimidoyl-phenyl)-3-oxo-2,8-diaza-spiro[4.5]dec-8-yl]-5-oxo-3-phenyl-pentanoic acid]", "IC50": 100}
{"smiles": "N=C(N)c1ccc(N2CC3(CCN(C(=O)CCCC(=O)O)CC3)NC2=O)cc1", "note": "[5-[3-(4-Carbamimidoyl-phenyl)-2-oxo-1,3,8-triaza-spiro[4.5]dec-8-yl]-5-oxo-pentanoic acid]", "IC50": 1020}
{"smiles": "N=C(N)c1ccc(N2CCC3(CCN(C(=O)CC(=O)O)CC3)C2=O)cc1", "note": "[3-[2-(4-Carbamimidoyl-phenyl)-1-oxo-2,8-diaza-spiro[4.5]dec-8-yl]-3-oxo-propionic acid]", "IC50": 12500}
{"smiles": "N=C(N)c1ccc(N2CC3(CCN(C(=O)NCCC(=O)O)CC3)CC2=O)cc1", "note": "[3-{[2-(4-Carbamimidoyl-phenyl)-3-oxo-2,8-diaza-spiro[4.5]decane-8-carbonyl]-amino}-propionic acid]", "IC50": 171}
{"smiles": "CCNC(=N)c1ccc(N2CCC3(CCN(C(=O)CCCC(=O)O)CC3)C2=O)cc1", "note": "[5-{2-[4-(N-Ethylcarbamimidoyl)-phenyl]-1-oxo-2,8-diaza-spiro[4.5]dec-8-yl}-5-oxo-pentanoic acid]", "IC50": 7540}
{"smiles": "CN1C(=O)N(c2ccc(C(=N)N)cc2)CC12CCN(C(=O)NCCC(=O)O)CC2", "note": "[3-{[3-(4-Carbamimidoyl-phenyl)-1-methyl-2-oxo-1,3,8-triaza-spiro[4.5]decane-8-carbonyl]-amino}-propionic acid]", "IC50": 212}
{"smiles": "Cc1ccc(S(=O)(=O)N[C@@H](CNC(=O)N2CCC3(CC2)C(=O)N(c2ccc(C(=N)N)cc2)C(=O)N3C)C(=O)O)cc1", "note": "[(S)-3-{[3-(4-Carbamimidoyl-phenyl)-1-methyl-2,4-dioxo-1,3,8-triaza-spiro[4.5]decane-8-carbonyl]-amino}-2-(toluene-4-sulfonylamino)-propionic acid]", "IC50": 59}
{"smiles": "CN1C(=O)N(c2ccc(C(=N)N)cc2)C(=O)C12CCN(CCCCC(=O)O)CC2", "note": "[5-[3-(4-Carbamimidoyl-phenyl)-1-methyl-2,4-dioxo-1,3,8-triaza-spiro[4.5]dec-8-yl]-pentanoic acid]", "IC50": 7560}
{"smiles": "N=C(N)c1ccc(N2CCC3(CCN(C(=O)CC(CC(=O)O)c4ccccc4)CC3)C2=O)cc1", "note": "(stereo not given) [5-[2-(4-Carbamimidoyl-phenyl)-1-oxo-2,8-diaza-spiro[4.5]dec-8-yl]-5-oxo-3-phenyl-pentanoic acid]", "IC50": 149}
{"smiles": "C[C@H](CC(=O)O)CC(=O)N1CCC2(CC1)CCN(c1ccc(C(=N)N)cc1)C2=O", "note": "[(S)-5-[2-(4-Carbamimidoyl-phenyl)-1-oxo-2,8-diaza-spiro[4.5]dec-8-yl]-3-methyl-5-oxo-pentanoic acid]", "IC50": 350}
{"smiles": "C[C@H](CC(=O)O)NC(=O)N1CCC2(CC1)CCN(c1ccc(C(=N)N)cc1)C2=O", "note": "[(R)-3-{[2-(4-Carbamimidoyl-phenyl)-1-oxo-2,8-diaza-spiro[4.5]decane-8-carbonyl]-amino}-butyric acid]", "IC50": 68}
{"smiles": "N=C(N)c1ccc(N2CC3(CCN(C(=O)NCCC(=O)O)CC3)NC2=O)cc1", "note": "[3-{[3-(4-Carbamimidoyl-phenyl)-2-oxo-1,3,8-triaza-spiro[4.5]decane-8-carbonyl]-amino}-propionic acid]", "IC50": 3770}
{"smiles": "CN1C(=O)N(c2ccc(C(=N)N)cc2)C(=O)C12CCN(C(=O)CC(CC(=O)O)c1ccccc1)CC2", "note": "(stereo not given) [5-[3-(4-Carbamimidoyl-phenyl)-1-methyl-2,4-dioxo-1,3,8-triaza-spiro[4.5]dec-8-yl]-5-oxo-3-phenyl-pentanoic acid]", "IC50": 120}
{"smiles": "CCCCOC(=O)N[C@@H](CCC(=O)N1CCC2(CC1)C(=O)N(c1ccc(C(=N)N)cc1)C(=O)N2C)C(=O)O", "note": "[2-Butoxycarbonylamino-5-[3-(4-carbamimidoyl-phenyl)-1-methyl-2,4-dioxo-1,3,8-triaza-spiro[4.5]dec-8-yl]-5-oxo-pentanoic acid]", "IC50": 65}
{"smiles": "N=C(N)c1ccc(N2CC3(CCN(C(=O)CCCCC(=O)O)CC3)CC2=O)cc1", "note": "[6-[2-(4-Carbamimidoyl-phenyl)-3-oxo-2,8-diaza-spiro[4.5]dec-8-yl]-6-oxo-hexanoic acid]", "IC50": 4100}
